Test results: patent US9624235B2, “Compounds and methods for inhibition of AP endonuclease-1/redox factor-1 (HAPE1) activity” (University of Pittsburgh—Of the Commonwealth System of …, priority 2012, dated 2017)
Read-outs that look alike come from different tables or passages of the source.

Legend:
APE-1 [1] = molecular target: T1, APE-1 (Homo sapiens (Human), UniProt P27695); experiment: Molecular beacon assay for APE-1 endonuclease inhibition; assay type: biochemical
Text: Screening Assays for APE1 Inhibition—The initial screen was designed to look at the effect of potential inhibitors on APE1 repair kinetics. The approach can be used as a high throughput screen by choosing a specific timepoint to monitor. The screen utilizes a molecular beacon with a tetrahydrofuran (THF) abasic site within the stem region of a DNA hairpin that has a fluorophore on the 5′-terminus and a quencher on the 3′-terminus (FIG. 2a). […] An example of the molecular beacon screen and the excision assay are shown in FIGS. 2b,c and 2d, respectively.
Molecular Beacon Assay for Screening of APE-1 Inhibitors. A fluorescence-based molecular beacon assay to measure APE-1 protein activity and inhibition was performed as described previously with some modifications. Tang et al. Neuro Oncol. 13, 471-486 (2011) APE-1 (2 nM) in 10 mM HEPES (pH 7.8) 0.5 mM MgCl, 100 mM NaCl, 100 mM KCl, 0.0005% (w/v) BSA, was incubated with 20 nM 5′-(F)-CGACTXTTGAATTGACACGCCATGTCGATCAATTCAATAGTCG-(D)-3′ [X=tetrahydrofuran (THF) abasic site modification; F, 6-carboxyfluorescein (6-FAM); and D, DABCYL] that forms a hairpin with a 15 base pair stem and a 13 base loop. The THF modification is a known substrate for APE-1 excision. APE-1 mediated cleavage of the phosphodiester backbone at the THF-abasic site led to release of the 5′ 6-FAM (fluorophore) containing pentanucleotide, disrupting the Förster Resonance Energy Transfer (FRET) mediated quenching of the 6-FAM by DABCYL in the native hairpin oligomer. Since the signal was generated by continuous liberation of the fluorophore-labeled excision fragment, progress of this reaction could be monitored in real-time using a Cary Eclipse fluorescence spectrometer (Varian, Palo Alto, Calif.) or a Synergy H1 multi-well plate reader (BioTek, Winooski, Vt.). Reactions were optimized to yield ˜90% substrate turnover in 10 min, and fluorescence intensities measured every 12 s at 495 nm excitation and 520 nm emission. Data from the first 1-3 min of the assays (linear phase) were used to determine rate of substrate turnover (V0). The Michaelis constant (KM) was deduced experimentally, by incubating 2 nM APE-1 protein with 2-500 nM hairpin DNA substrate and measuring V0 —the experimentally observed V0 were analyzed as a function of substrate concentration [S] via non-linear regression using Prism (v.4; GraphPad Software, Inc., La Jolla, Calif.) and the KM was calculated as per the algorithm in the software package. To assay inhibition, 2 nM APE-1 protein was pre-incubated with 0.05-10.00 μM of the candidate inhibitors at 25° C. for 60 min, before initiating the excision assay by addition of hairpin DNA substrate. V0 was calculated at various concentrations of inhibitors and represented as inverse function of increasing inhibitor concentration [I]. […] All assays were carried out in three independent sets to obtain mean data and standard error of mean.
(§1) Screening for APE-1 Inhibitors. […] In this assay, the DNA hairpin substrate has a 6-FAM fluorophore on the 5′-terminus, a DABACYL fluorescence quencher on the 3′-terminus and a THF abasic site located 6 base pairs from the 5′-terminus in the stem region (FIG. 6). APE-1 activity is monitored as an increase in fluorescence due to the release of the 5′-(6-FAM)-GCACT fragment as a function of time. […] In this assay, substrate turnover was calculated from relative intensities of cleaved vs. intact oligomers and correlated with inhibitor concentration.

APE-1 [2] = molecular target: T1, APE-1; experiment: Gel-based excision assay for APE-1 inhibitors; assay type: biochemical; conditions: APE-1 cleaved fragment vs. full length DNA substrate
Description: as §1

T98G cells = experiment: Potentiation of MeLex cytotoxicity, long term (10 d) CyQUANT assay; assay type: cell-based, human
Description: Cytotoxic Potentiation of Various DNA Damaging Agents. T98G cells maintained in growth medium were resuspended in fresh growth medium and seeded into 96-well plates at 2000 cells/well (short term cytotoxicity) or 100 cells/well (long term cytotoxicity) as described in the previous section. After 24 h, the cells were treated with serial dilutions of various DNA damaging drugs in absence or presence of APE-1 inhibitors. At the end of the treatment period, cell survival was assayed using CellTiter 96 AQueous or CyQUANT kits for the short- and long-term studies respectively.
Toxicity. It was assumed that inhibition of APE-1 activity would be lead to toxicity since genetic deletion of the protein is lethal to cells. […] The toxicities were also determined in combination with the DNA minor groove methylating agent, MeLex. MeLex efficiently and selectively generates N3-methyladenine, which is converted into an abasic site by a BER glycosylase and/or hydrolytic depurination. The T98G cell line is relatively resistant to DNA damaging anticancer agents due to expression of multiple drug resistance proteins and O^6-alkylguanine-DNA alkyltransferase. […] A goal of the development of APE-1 inhibitors is to determine if they can be used to enhance the activity of DNA alkylating agents.

[3] = system: aldehyde reactive sites in genomic DNA from T98G cells; assay type: cell-based, human
Description: Quantification of Abasic Sites. T98G cells maintained in growth medium, were harvested by Trypsin-EDTA treatment, resuspended in fresh growth medium at a density of 2.5×10^5 cells mL^−1, and 2 mL (5×10^5 cells) of this suspension was seeded into the wells of a sterile 6-well tissue culture plate. Cells were allowed to grow for 24 h, treated with the various compounds for different time points and/or at different concentrations. At the end of each treatment, adherent cells were harvested by trypsin-EDTA treatment and pooled with live and dead cells in culture supernatant. Pooled cells in suspension were pelleted by centrifugation, washed with 1×PBS and genomic DNA was isolated using the DNAzol reagent (Invitrogen). DNA in solution was quantified by UV absorbance (λ260 nm) using a Synergy H1 multiwell plate reader (BioTek, Winooski, Vt.). Abasic sites in purified DNA were then reacted with the biotin-conjugated aldehyde reactive probe (ARP), immobilized onto 96-well ELISA plates, and detected using horseradish peroxidase (HRP)-conjugated streptavidin using a colorimetric substrate as per manufacturer's instructions (Dojindo Molecular Technologies, Rockville, Md.).
The biotin tagged ARS are quantified using an avidin-biotin assay, followed by colorimetric detection with horseradish peroxidase conjugated to avidin.

[4] = system: NCI panel of 60-cell lines; experiment: NCI 60 cell line growth inhibition; assay type: cell-based; conditions: NCI 60 cell lines; read-out: average growth inhibition (GI50) in all the lines
leukemia cell lines = experiment: NCI 60 cell line growth inhibition; assay type: cell-based
SK-MEL-5 (melanoma) line = experiment: NCI 60 cell line growth inhibition; assay type: cell-based; conditions: Homo sapiens; 4 alone, SK-MEL-5 line

T1 sequence (P27695 whole entry): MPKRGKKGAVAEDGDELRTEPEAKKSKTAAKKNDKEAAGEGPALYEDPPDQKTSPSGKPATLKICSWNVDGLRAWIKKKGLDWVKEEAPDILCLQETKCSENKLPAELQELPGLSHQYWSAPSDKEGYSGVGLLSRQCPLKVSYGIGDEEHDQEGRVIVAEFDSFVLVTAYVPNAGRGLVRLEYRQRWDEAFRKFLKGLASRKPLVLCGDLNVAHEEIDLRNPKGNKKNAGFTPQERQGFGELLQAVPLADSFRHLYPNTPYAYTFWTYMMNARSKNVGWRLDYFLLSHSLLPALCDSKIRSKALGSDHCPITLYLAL

`CCn1c2ccccc2c2cc(/C=N/Nc3cc(C)nc4cc5c(cc34)OCO5)ccc21` [Compound 4] gave a Ki (APE-1 [1]; molecular beacon assay, endonuclease activity, read-out: Ki APE-1 endonuclease inhibition) of 0.12 µM, a Ki (APE-1 [1]; molecular beacon screen, read-out: Ki, inhibition curve FIG. 2(c)) of 0.345 µM and an IC50 (APE-1 [2]) of 4.1 µM. For the same compound, the “LD50 of MeLex in the presence of LD10 concentration of inhibitor” value (T98G cells) was 1.6 µM, the “maximum potentiation of MeLex” value (T98G cells) was “approximately 5 fold” and the “level of ARS” value ([3]; 0.25 μM compound, maintained from 6 h until 18 h) was “approximately 17 ARS/10^5 nucleotides”. The “level of ARS in combination with MeLex” value ([3]; 80 μM MeLex + 0.25 μM inhibitor, through at least 12 h) was 63 sites/10^5 nucleotides, the GI50 [4] was 4.4 ± 2.6 µM and the GI50 (leukemia cell lines; 60 cell, 6 leukemia cell lines, read-out: GI50 overall average leukemia cell lines) was 1.8 ± 2.9 µM. For the same compound, the GI50 (leukemia cell lines; Homo sapiens, HL-60 omitted, read-out: GI50 leukemia cell lines, HL-60 line omitted) was 0.64 ± 0.4 µM and the GI50 (SK-MEL-5 (melanoma) line) was 4 µM.
